The nature of one data set: Acute Toxicity Test. The conditions noted are these: oral, 1000 mg/kg, until after one week. The class given is in vivo. As to the method:
Male Jcl-ICR mice (5 wk) were used in groups of five individuals. The animals of the respective groups were orally administered with the compounds (227), (236) and (303) respectively produced in Production Examples 87, 90 and 109 at the dose of 1000 mg/kg.

For a further data set, the system named is PAF-induced hypotension. Nature of the data set: Inhibitory action on PAF-induced hypotension in rats. It is filed as in vivo, rat (Sprague-Dawley). The conditions noted are these: Rattus norvegicus, read-out: Inhibitory Rate (Lowering of Blood Pressure); for inhibition in vivo at 0.01 mg/kg / inhibition in vivo at 0.1 mg/kg: iv; for inhibition in vivo at 1 mg/kg / inhibition in vivo at 3 mg/kg / inhibition in vivo at 10 mg/kg: oral. As to the method: Sprague-Dawley male rats, each weighing about 250 g, were subjected to the experiment. The rats were cannulated on the side of femoral artery for measuring the blood pressure, and on the side of femoral vein for administering the drug. The blood pressure was measured through a pressure transducer and recorded. First, PAF (1 μg/kg) was administered intravenously (i.v.) to examine the extent of lowering of blood pressure. Then, the test samples were administered intravenously or orally. […]
The inhibitory action on PAF-induced hypotension (% inhibition) is indicated as the ratio of blood pressure-lowering degree (Δ mmHg) induced by PAF after administration of test samples relative to blood pressure-lowering degree (Δ mmHg) induced by PAF before administration of test samples.

The test system of data set [1] is platelet aggregation (PAF). Description: Inhibitory action on PAF-induced rabbit platelet aggregation. It is filed as cell-based. Conditions: Oryctolagus cuniculus, read-out: inhibitory percentage (platelet aggregation); for inhibition at 3 µM: 3 × 10^-6 M; for inhibition at 0.3 µM: 3 × 10^-7 M; for inhibition at 0.03 µM: 3 × 10^-8 M. As to the method: Blood was collected directly from the hearts of male rabbits using a syringe containing, as an anticoagulant, 3.15% citric acid (one part to 9 parts of blood). The blood was subjected to centrifuge at 800 rpm for ten minutes at room temperature to obtain platelet rich plasma (PRP). The remaining blood was further subjected to centrifuge at 3000 rpm for ten minnutes to separate platelet poor plasma (PPP) as the supernatant. PRP was diluted with PPP, and the number of platelets was adjusted to about 500,000/ μl. This PRP(250 μl) was stirred for two minutes at 37° C., and there was added a test sample, and the mixture was stirred for further two minutes, followed by addition of PAF of a given concentration. Platelet aggregation was examined by means of a platelet-agglutometer (manufactured by Rika Denki). Platelet aggregation preventing action of the test sample was determined based on the maximum percent light transmission (maximum percent. agglutination).

Where two headings read alike, the source gives them in different places.

Regarding `CCC[n+]1cc(Br)cc(C(=O)N(CCC(=O)NCCOC(=O)N2CCc3ccccc3C2)c2ccccc2)c1` [Production Example 87, 5-Bromo-3-[N-[2-[[2-(1,2,3,4-tetrahydroisoquinolyl)carbonyloxy]ethyl]carbamoyl]ethyl-N-phenyl]carbamoyl-1-propylpyridinium chloride], the death of mice result in “Acute Toxicity Test” is given as “No death of mice was observed”. For the same molecule, the inhibition in vivo at 0.01 mg/kg with PAF-induced hypotension (1 hr.) amounted to 64%; in the data set on PAF-induced hypotension (2 hr.) it was 51%; in the data set with PAF-induced hypotension (4 hr.), 41%; in the data set on PAF-induced hypotension (6 hr.) it was 30%; in the data set with PAF-induced hypotension (8 hr.) it was 23%; in the data set with PAF-induced hypotension (5 min, i.v., 5 min.), 91%. Also, the inhibition in vivo at 1 mg/kg amounted to 57% in the data set on PAF-induced hypotension (1 hr.); 76% in the data set on PAF-induced hypotension (2 hr.); 86% in the data set on PAF-induced hypotension (4 hr.); 74% in the data set on PAF-induced hypotension (6 hr.); 63% with PAF-induced hypotension (8 hr.). Moreover, the inhibition in vivo at 3 mg/kg worked out at 100% in the data set on PAF-induced hypotension (1 hr.); 97% in the data set on PAF-induced hypotension (2 hr.); 99% in the data set on PAF-induced hypotension (4 hr.); 93% with PAF-induced hypotension (6 hr.); 88% in the data set on PAF-induced hypotension (8 hr.). The inhibition at 3 µM in data set [1] was found to be 100%. The inhibition at 0.3 µM in data set [1] turned out to be 100%. For the same molecule, the inhibition at 0.03 µM in data set [1] worked out at 49%.
Regarding `CCC[n+]1cc(Br)cc(C(=O)N(CCC(=O)NCCNS(=O)(=O)c2cccc3ccccc23)c2ccccc2)c1` [Production Example 109, 5-Bromo-3-[N-[2-[2-(1-naphthylsulfonamide)ethyl]carbamoyl]-ethyl-N-phenyl]carbamoyl-1-propylpyridinium chloride], the death of mice entry in “Acute Toxicity Test” is given as “No death of mice was observed”. The inhibition in vivo at 0.1 mg/kg was found to be 100% in the data set on PAF-induced hypotension (1 hr.); 97% in the data set on PAF-induced hypotension (2 hr.); 71% in the data set with PAF-induced hypotension (4 hr.); 50% in the data set on PAF-induced hypotension (6 hr.); 46% in the data set with PAF-induced hypotension (8 hr.); 100% in the data set with PAF-induced hypotension (5 min, i.v., 5 min.). The inhibition in vivo at 1 mg/kg is 56% with PAF-induced hypotension (1 hr.); 65% with PAF-induced hypotension (2 hr.); 64% in the data set on PAF-induced hypotension (4 hr.); 54% in the data set with PAF-induced hypotension (6 hr.); 48% in the data set with PAF-induced hypotension (8 hr.). For the same molecule, the inhibition in vivo at 3 mg/kg with PAF-induced hypotension (1 hr.) stood at 95%; in the data set with PAF-induced hypotension (2 hr.), 97%; in the data set on PAF-induced hypotension (4 hr.) it was 97%; in the data set on PAF-induced hypotension (6 hr.), 92%; with PAF-induced hypotension (8 hr.), 80%. Besides, the inhibition at 3 µM in data set [1] amounted to 100%. Further, the inhibition at 0.3 µM in data set [1] came out at 100%. For the same molecule, the inhibition at 0.03 µM in data set [1] was determined as 26%.
For `CCC[n+]1cc(Cl)cc(C(=O)N(CCC(=O)NCCOC(=O)N2CCc3ccccc3C2)c2ccccc2)c1` [Production Example 88, 5-Chloro-3-[N-[2-[[2-(1,2,3,4-tetrahydroisoquinolyl)carbonyloxy]ethyl]carbamoyl]ethyl-N-phenyl]carbamoyl-1-propylpyridinium chloride], the inhibition in vivo at 0.01 mg/kg in the data set on PAF-induced hypotension (1 hr.) is 59%; in the data set on PAF-induced hypotension (2 hr.), 55%; in the data set on PAF-induced hypotension (4 hr.), 40%; with PAF-induced hypotension (6 hr.) it was 25%; with PAF-induced hypotension (8 hr.), 19%; with PAF-induced hypotension (5 min, i.v., 5 min.), 95%. Besides, the inhibition in vivo at 1 mg/kg in the data set with PAF-induced hypotension (1 hr.) is 70%; with PAF-induced hypotension (2 hr.), 75%; in the data set with PAF-induced hypotension (4 hr.) it was 73%; in the data set on PAF-induced hypotension (6 hr.) it was 61%; in the data set on PAF-induced hypotension (8 hr.), 58%. For the same molecule, the inhibition in vivo at 3 mg/kg in the data set with PAF-induced hypotension (1 hr.) turned out to be 93%; with PAF-induced hypotension (2 hr.) it was 95%; with PAF-induced hypotension (4 hr.), 98%; in the data set on PAF-induced hypotension (6 hr.), 83%; in the data set on PAF-induced hypotension (8 hr.), 85%. Further, the inhibition at 3 µM in data set [1] turned out to be 100%. Also, the inhibition at 0.3 µM in data set [1] was 100%. In addition, the inhibition at 0.03 µM in data set [1] is 33%.
With `CCC[n+]1cc(Br)cc(C(=O)N(CCC(=O)NCCNC(=O)c2cccc3ccccc23)c2ccccc2)c1` [Production Example 108, 5-Bromo-3-[N-[2-[2-(1-naphthoylamino)ethyl]carbamoyl]ethyl-N-phenyl]carbamoyl-1-propylpyridinium chloride], the inhibition in vivo at 0.1 mg/kg in the data set on PAF-induced hypotension (1 hr.) was determined as 100%; in the data set on PAF-induced hypotension (2 hr.), 97%; in the data set with PAF-induced hypotension (4 hr.), 75%; in the data set on PAF-induced hypotension (6 hr.), 58%; in the data set with PAF-induced hypotension (8 hr.), 45%; in the data set on PAF-induced hypotension (5 min, i.v., 5 min.), 100%. For the same molecule, the inhibition in vivo at 1 mg/kg in the data set on PAF-induced hypotension (1 hr.) was 64%; in the data set with PAF-induced hypotension (2 hr.), 61%; in the data set on PAF-induced hypotension (4 hr.) it was 55%; in the data set with PAF-induced hypotension (6 hr.) it was 51%; in the data set with PAF-induced hypotension (8 hr.), 42%. For the same molecule, the inhibition in vivo at 3 mg/kg in the data set with PAF-induced hypotension (1 hr.) is 92%; with PAF-induced hypotension (2 hr.) it was 86%; in the data set on PAF-induced hypotension (4 hr.), 94%; in the data set with PAF-induced hypotension (6 hr.) it was 94%; in the data set with PAF-induced hypotension (8 hr.), 72%. Besides, in data set [1], the inhibition at 3 µM was found to be 100%. The inhibition at 0.3 µM in data set [1] worked out at 37%. Also, the inhibition at 0.03 µM in data set [1] turned out to be 5%.
In the case of `CCC[n+]1cc(Br)cc(C(=O)N(CCOC(=O)NCCCOC(=O)Nc2cccc3ccccc23)c2ccccc2)c1` [Production Example 52, 5-bromo-3-[N-2-[3-(1-naphthylcarbamoyloxy)propyl]carbamoyloxy]ethyl-N-phenyl]carbamoyl-1-propyl pyridinium chloride], in the data set with PAF-induced hypotension (1 hr.), the inhibition in vivo at 1 mg/kg was 30%, the inhibition in vivo at 3 mg/kg was 87% and the inhibition in vivo at 10 mg/kg came to 92%. Moreover, in the data set with PAF-induced hypotension (2 hr.), the inhibition in vivo at 1 mg/kg stood at 47%, the inhibition in vivo at 3 mg/kg turned out to be 92% and the inhibition in vivo at 10 mg/kg was 95%. Further, in the data set on PAF-induced hypotension (4 hr.), the inhibition in vivo at 1 mg/kg was determined as 37%, the inhibition in vivo at 3 mg/kg came out at 89% and the inhibition in vivo at 10 mg/kg stood at 98%. In the data set on PAF-induced hypotension (6 hr.), the inhibition in vivo at 1 mg/kg was 51%, the inhibition in vivo at 3 mg/kg is 88% and the inhibition in vivo at 10 mg/kg stood at 96%. Besides, in the data set on PAF-induced hypotension (8 hr.), the inhibition in vivo at 1 mg/kg amounted to 31%, the inhibition in vivo at 3 mg/kg worked out at 81% and the inhibition in vivo at 10 mg/kg is 95%. In addition, in data set [1], the inhibition at 3 µM amounted to 100%, the inhibition at 0.3 µM was determined as 100% and the inhibition at 0.03 µM turned out to be 27%.
